In data set [1] the target is T1, HCV polymerase (NS5B570n-Con1) (Hepatitis C virus genotype 1b, UniProt Q9WMX2).
T1 construct: contains a 21 amino acid deletion at the C-terminus relative to the full-length HCV polymerase; made in house; host or cells: E. coli strain BL21(DE) pLysS, plasmid pET17b
Put plainly: HCV NS5B RNA polymerase activity (HCV Polymerase Assay). The format is biochemical, HCV Con1 strain. How it is done:
The enzymatic activity of HCV polymerase (NS5B570n-Con1) was measured as the incorporation of radiolabeled nucleotide monophosphates into acid insoluble RNA products. Unincorporated radiolabeled substrate was removed by filtration and scintillant was added to the washed and dried filter plate containing radiolabeled RNA product. The amount of RNA product generated by NS5B570-Con1 at the end of the reaction was directly proportional to the amount of light emitted by the scintillant.
The N-terminal 6-histidine tagged HCV polymerase, derived from HCV Con1 strain, genotype 1b (NS5B570n-Con1) contains a 21 amino acid deletion at the C-terminus relative to the full-length HCV polymerase and was purified from E. coli strain BL21(DE) pLysS. The construct, containing the coding sequence of HCV NS5B Con1 (GenBank accession number AJ242654) was inserted into the plasmid construct pET17b, downstream of a T7 promoter expression cassette and transformed into E. coli. A single colony was grown overnight as a starter culture and later used inoculate 10 L of LB media supplemented with 100 μg/mL ampicillin at 37° C. Protein expression was induced by the addition of 0.25 mM isopropyl-β-D-thiogalactopyranoside (IPTG) when optical density at […] of the culture was between 0.6 and 0.8 and cells were harvested after 16 to 18 h at 30° C. NS5B570n-Con1 was purified to homogeneity using a three-step protocol including subsequent column chromatography on Ni-NTA, SP-Sepharose HP and Superdex 75 resins.
Each 50 μL enzymatic reaction contained 20 nM RNA template derived from the complementary sequence of the Internal Ribosome Entry Site (cIRES), 20 nM NS5B570n-Con1 enzyme, 0.5 μCi of tritiated UTP (Perkin Elmer catalog no. TRK-412; specific activity: 30 to 60 Ci/mmol; stock solution concentration from 7.5×10^−5 M to 20.6×10^−6 M), 1 μM each ATP, CTP, and GTP, 40 mM Tris-HCl pH 8.0, 40 mM NaCl, 4 mM DTT (dithiothreitol), 4 mM MgCl2, and 5 μL of compound serial diluted in DMSO. Reaction mixtures were assembled in 96-well filter plates (cat #MADVNOB, Millipore Co.) and incubated for 2 h at 30° C. Reactions were stopped by addition of 10% final (v/v) trichloroacetic acid and incubated for 40 min at 4° C. Reactions were filtered, washed with 8 reaction volumes of 10% (v/v) trichloroacetic acetic acid, 4 reaction volumes of 70% (v/v) ethanol, air dried, and 25 μL of scintillant (Microscint 20, Perkin-Elmer) was added to each reaction well.
The amount of light emitted from the scintillant was converted to counts per minute (CPM) on a Topcount® plate reader (Perkin-Elmer, Energy Range: Low, Efficiency Mode Normal, Count Time: 1 min, Background Subtract: none, Cross talk reduction: Off).
Data was analyzed in Excel® (Microsoft®) and ActivityBase® (Idbs®). The reaction in the absence of enzyme was used to determine the background signal, which was subtracted from the enzymatic reactions. Positive control reactions were performed in the absence of compound, from which the background corrected activity was set as 100% polymerase activity. All data was expressed as a percentage of the positive control.
The compound concentration at which the enzyme-catalyzed rate of RNA synthesis was reduced by 50% (IC50) was calculated by fitting equation (i) to the data where“Y”
[formula] corresponds to the relative enzyme activity (in %), “% Min” is the residual relative activity at saturating compound concentration, “% Max” is the relative maximum enzymatic activity, “X” corresponds to the compound concentration, and “S” is the Hill coefficient (or slope).

Each structure is given as a SMILES string.

A word on the IC50: it is the concentration that gives 50% inhibition. A lower IC50 goes with inhibition by little substance. Turning to `COc1c(/C=C/c2ccc(NS(C)(=O)=O)cc2)cc(N2CCCNC2=O)cc1C(C)(C)C` [Compound I-2, N-(4-{(E)-2-[3-tert-Butyl-2-methoxy-5-(2-oxo-tetrahydro-pyrimidin-1-yl)-phenyl]-vinyl}-phenyl)-methanesulfonamide], half-maximal inhibition in data set [1] (IC50) required 10 nM. In other words, the double-digit nanomolar range.

For orientation: melting point means the temperature, or range, at which the solid turns liquid. Regarding `COc1c(CCc2ccc(NS(C)(=O)=O)cc2)cc(N2CCCNC2=O)cc1C(C)(C)C` [Compound I-3, N-(4-{2-[3-tert-Butyl-2-methoxy-5-(2-oxo-tetrahydro-pyrimidin-1-yl)-phenyl]-ethyl}-phenyl)-methanesulfonamide], the melting point lay within 244 to 246 °C. Moreover, in data set [1], the IC50 came to 13 nM.

Regarding `COc1c(CCc2ccc(NS(C)(=O)=O)cc2)cc(N2CCNC2=O)cc1C(C)(C)C` [Compound I-4], the melting point was 229 to 231 °C. The molecule also displayed a half-maximal inhibitory concentration (IC50) in data set [1] of 32 nM.

Consider `COc1c(CCc2ccc(NS(C)(=O)=O)cc2)cc(N2C(=O)CCNC2=O)cc1C(C)(C)C` [Compound I-6, N-(4-{2-[3-tert-Butyl-5-(2,6-dioxo-tetrahydro-pyrimidin-1-yl)-2-methoxy-phenyl]-ethyl}-phenyl)-methanesulfonamide], for which the IC50 in data set [1] was found to be 63 nM.

`COc1c(CCc2ccc(NS(C)(=O)=O)cc2)cc(N2C(=O)CNC2=O)cc1C(C)(C)C` [Compound I-7, N-(4-{2-[3-tert-Butyl-5-(2,5-dioxo-imidazolidin-1-yl)-2-methoxy-phenyl]-ethyl}-phenyl)-methanesulfonamide] had a melting point of 230 to 231 °C. Besides, inhibition in data set [1] was half-maximal at 15 nM (IC50).

`COc1c(/C=C/c2ccc(NS(C)(=O)=O)cc2)cc(N2CCCCC2=O)cc1C(C)(C)C` [Compound I-8, N-(4-{(E)-2-[3-tert-Butyl-2-methoxy-5-(2-oxo-piperidin-1-yl)-phenyl]-vinyl}-phenyl)-methanesulfonamide] returned a melting point of 247 to 249 °C. In addition, the IC50 in data set [1] worked out at 16 nM.

The molecule `COc1c(/C=C/c2ccc(NS(C)(=O)=O)cc2)cc(-n2ccccc2=O)cc1C(C)(C)C` [Compound I-9, N-(4-{(E)-2-[3-tert-Butyl-2-methoxy-5-(2-oxo-2H-pyridin-1-yl)-phenyl]-vinyl}-phenyl)-methanesulfonamide] showed a melting point of 254 to 256 °C. Moreover, the IC50 in data set [1] worked out at 1 nM.

The molecule `COc1c(/C=C/c2ccc(NS(C)(=O)=O)cc2)cc(-n2cc(F)ccc2=O)cc1C(C)(C)C` [Compound I-10] displayed a melting point of 248 to 250 °C. In addition, the IC50 in data set [1] worked out at 5 nM.

In the case of `COc1c(/C=C/c2ccc(NS(C)(=O)=O)cc2)cc(-n2ncccc2=O)cc1C(C)(C)C` [Compound I-11], the melting point lay within 260 to 262 °C. The molecule also came in with an IC50 in data set [1] of 0.38 nM.

In turn, `COc1c(/C=C/c2ccc(NS(C)(=O)=O)cc2)cc(-n2cnccc2=O)cc1C(C)(C)C` [Compound I-12] came in with a melting point of 202 to 204 °C. This molecule showed an IC50 in data set [1] of 1 nM.

Regarding `COC(=O)c1cc(NS(C)(=O)=O)ccc1/C=C/c1cc(-n2ccncc2=O)cc(C(C)(C)C)c1OC` [Compound I-15, 2-{(E)-2-[3-tert-Butyl-2-methoxy-5-(2-oxo-2H-pyrazin-1-yl)-phenyl]-vinyl}-5-methanesulfonylamino-benzoic acid methyl ester], the IC50 in data set [1] is 1 nM.

`COc1c(/C=C/c2ccc(NS(C)(=O)=O)cc2C(=O)O)cc(-n2ccncc2=O)cc1C(C)(C)C` [Compound I-16]: the melting point lay within 176 to 179 °C. Moreover, half-maximal inhibition in data set [1] (IC50) required 0.39 nM.

Consider `COc1c(/C=C/c2ccc(NS(C)(=O)=O)cc2CO)cc(-n2ccncc2=O)cc1C(C)(C)C` [Compound I-17, N-(4-{(E)-2-[3-tert-Butyl-2-methoxy-5-(2-oxo-2H-pyrazin-1-yl)-phenyl]-vinyl}-3-hydroxymethyl-phenyl)-methanesulfonamide], for which the melting point was in the range of 238 to 240 °C. In data set [1], this molecule displayed an IC50 of 0.49 nM.

In the case of `COc1c(/C=C/c2ccccc2C(=O)O)cc(-n2ccccc2=O)cc1C(C)(C)C` [Compound I-18], in data set [1], it took 5 nM to reach half-maximal inhibition (IC50).

`COc1c(/C=C/c2ccccc2C(=O)O)cc(-n2ccncc2=O)cc1C(C)(C)C` [Compound I-19, 2-{(E)-2-[3-tert-Butyl-2-methoxy-5-(2-oxo-2H-pyrazin-1-yl)-phenyl]-vinyl}-benzoic acid] had an IC50 in data set [1] of 2 nM.

Molecule `COc1c(CCc2ccc(NS(C)(=O)=O)cc2)cc(N2CCCS2(=O)=O)cc1C(C)(C)C` [Compound I-20] registered a melting point of 83 to 86 °C. This molecule also had an IC50 in data set [1] of 83 nM.

For the molecule `COc1c(/C=C/c2ccc(NS(C)(=O)=O)cc2C(=O)O)cc(N2CCCNC2=O)cc1C(C)(C)C` [Compound I-21], the melting point fell in the range of 275 to 278 °C. In data set [1], this molecule yielded an IC50 of 0.23 nM.

As for `COc1c(-c2cc3ccc(NS(C)(=O)=O)cc3c(=O)o2)cc(-n2ccncc2=O)cc1C(C)(C)C` [Compound I-22], the melting point was in the range of 272 to 275 °C. For the same molecule, the half-inhibitory concentration (IC50) in data set [1] amounted to 3 nM.

`COc1c(/C=C/c2ccc(NS(C)(=O)=O)cc2)cc(-n2ccc(=O)[nH]c2=O)c2c1C(C)(C)CO2` [Compound I-23, N-(4-{(E)-2-[7-(2,4-Dioxo-3,4-dihydro-2H-pyrimidin-1-yl)-4-methoxy-3,3-dimethyl-2,3-dihydro-benzofuran-5-yl]-vinyl}-phenyl)-methanesulfonamide] displayed a melting point of 285 to 288 °C. Further, the IC50 in data set [1] was 0.37 nM.

In data set [1], `COc1c(-c2nc3cc(NS(C)(=O)=O)ccc3o2)cc(N2CCCNC2=O)cc1C(C)(C)C` [Compound I-24, N-{2-[3-tert-Butyl-2-methoxy-5-(2-oxo-tetrahydro-pyrimidin-1-yl)-phenyl]-benzooxazol-5-yl}-methanesulfonamide] showed an IC50 of 63.3 nM.

Consider `COc1c(CCc2ccc(NS(C)(=O)=O)cc2)cc(N2C(=O)NC(C)C2=O)cc1C(C)(C)C` (stereo not drawn) [Compound I-25], for which the melting point is 211 to 212 °C. The molecule further yielded an IC50 in data set [1] of 19 nM.

`COc1c(/C=C/c2ccc(NS(C)(=O)=O)cc2)cc(N2CCCNS2(=O)=O)cc1C(C)(C)C` [Compound I-26, N-(4-{(E)-2-[3-tert-Butyl-5-(1,1-dioxo-1λ^6-[1,2,6]thiadiazinan-2-yl)-2-methoxy-phenyl]-vinyl}-phenyl)-methanesulfonamide] registered a melting point of 255 to 257 °C. Besides, in data set [1], the IC50 is 5.1 nM.

As for `COc1c(/C=C/c2ccc(NS(C)(=O)=O)cc2)cc(-n2c(C)n[nH]c2=O)cc1C(C)(C)C` [Compound I-27, N-(4-{(E)-2-[3-tert-Butyl-2-methoxy-5-(3-methyl-5-oxo-1,5-dihydro-[1,2,4]triazol-4-yl)-phenyl]-vinyl}-phenyl)-methanesulfonamide], the melting point is 289 to 291 °C. Further, 0.3 nM corresponded to half-maximal inhibition in data set [1] (IC50).

Take `CC(C)(C)c1cc(/C=C/c2ccc(NS(C)(=O)=O)cc2)cc(N2CCCNC2=O)c1` [I-I, N-(4-{(E)-2-[3-tert-Butyl-5-(2-oxo-tetrahydro-pyrimidin-1-yl)-phenyl]-vinyl}-phenyl)-methanesulfonamide]: the melting point fell in the range of 235 to 237 °C. The same molecule displayed an IC50 in data set [1] of 15 nM.

Source of the values: US8158631B2, “Heterocyclic antiviral compounds” (Roche Palo Alto LLC, priority 2009, dated 2012).
